Test [1] concerns the target T1, human sodium channels Nav 1.8 (Homo sapiens, UniProt Q9Y5Y9).
T1 construct: expressed in transfected cells
Kind of test: Automated whole-cell voltage-clamp (ScreenPatch 384P) sodium current block in CHO cells expressing Nav 1.8. It is filed as cell-based. As to conditions: CHO cells stably expressing human Nav 1.8; whole cell patch clamp, inactivation step -40 mV 8 s, test step 10 mV (TP1A), room temperature; mean where tested in two or more assays; read-out: Nav1.8 IC50. On the procedure:
(§1) Biological assays were performed on Chinese hamster ovary (CHO) cells that express human sodium channels Nav 1.8 or Nav 1.7 in a stable manner.
(§2) The experimental protocol voltage-clamp using the whole cell configuration was established on the automated ScreenPatch© 384P platform (SP384PE, Nanion Technologies, Livingston, NJ) and the results were recorded with a Nanion 384-well Patch Clamp chip (NPC) (Nanion Technologies, Livingston, NJ).
(§3) Formula I compounds were diluted in eight concentrations in the extracellular solution composed of saline saline solution, buffered with HEPES (mM): NaCl, 137; KCl, 4; CaCl2, 3.8; MgCl2, 1; HEPES, 10; Glucose, 10; pH 7.4. The […], 50; CsF, 90; MgCl2, 5; EGTA, 5; HEPES, 10; pH 7.2. The duration of exposure of each compound with cells expressing Nav 1.7 or Nav 1.8 was at least five minutes, and the assays were performed at room temperature.
(§4) The measurements of the sodium currents of Nav 1.8 and Nav 1.7 were obtained using the voltage protocol described below.
(§5) A holding voltage of −100 mV was established followed by an inactivation voltage step at −40 mV for 8 seconds, followed by a step of −100 mV for 20 ms, followed by a 20 ms step for 10 mV for Nav 1.8 or 0 mV for Nav 1.7 (TP1A) before returning to the holding voltage of −100 mV.
(§6) The protocol was repeated at a frequency of 0.05 Hz and the amplitude of the current was quantified throughout the recording of the TP1A phase. The variation in the amplitude of the peak current was evaluated according to the formula described below, after exposing the cells expressing the channels to each concentration of the different compounds:
(§7) wherein ITP1A,basal and ITP1A,molecule represent the peaks of sodium current input into TP1A before exposure to the compound and in the presence of the compound, respectively.
(§8) The decrease in the amplitude of the peak current, after the exposure of the cells to the compounds, was used to calculate the percentage of relative blockage of the channels in relation to the positive control according to the formula below: […]
(§9) wherein % V and % CP represent the means of the values of current inhibition with a vehicle (DMSO) and positive controls, respectively. The sodium currents of the positive control were considered as 100%.
(§10) wherein [Test] represents the concentration of the molecule evaluated, CI50 is the concentration of the compound that generates half of the maximum inhibition, N is the Hill coefficient, and % Block′ is the percentage of sodium channel current (Nav 1.8 and Nav 1.7) blocked at each concentration of the molecule evaluated. Data were obtained by nonlinear regression (nonlinear least squares) with XLfit for Excel (Microsoft, Redmond, WA).
(§11) The compounds were tested in at least one assay to obtain the value of CI50. For compounds that were tested in two or more assays, the results are described as the means of the CI50 values.

In test [2] the target is T2, human sodium channels Nav 1.7 (Homo sapiens, UniProt Q15858).
T2 construct: expressed in transfected cells
T2 sequence (Q15858 whole entry): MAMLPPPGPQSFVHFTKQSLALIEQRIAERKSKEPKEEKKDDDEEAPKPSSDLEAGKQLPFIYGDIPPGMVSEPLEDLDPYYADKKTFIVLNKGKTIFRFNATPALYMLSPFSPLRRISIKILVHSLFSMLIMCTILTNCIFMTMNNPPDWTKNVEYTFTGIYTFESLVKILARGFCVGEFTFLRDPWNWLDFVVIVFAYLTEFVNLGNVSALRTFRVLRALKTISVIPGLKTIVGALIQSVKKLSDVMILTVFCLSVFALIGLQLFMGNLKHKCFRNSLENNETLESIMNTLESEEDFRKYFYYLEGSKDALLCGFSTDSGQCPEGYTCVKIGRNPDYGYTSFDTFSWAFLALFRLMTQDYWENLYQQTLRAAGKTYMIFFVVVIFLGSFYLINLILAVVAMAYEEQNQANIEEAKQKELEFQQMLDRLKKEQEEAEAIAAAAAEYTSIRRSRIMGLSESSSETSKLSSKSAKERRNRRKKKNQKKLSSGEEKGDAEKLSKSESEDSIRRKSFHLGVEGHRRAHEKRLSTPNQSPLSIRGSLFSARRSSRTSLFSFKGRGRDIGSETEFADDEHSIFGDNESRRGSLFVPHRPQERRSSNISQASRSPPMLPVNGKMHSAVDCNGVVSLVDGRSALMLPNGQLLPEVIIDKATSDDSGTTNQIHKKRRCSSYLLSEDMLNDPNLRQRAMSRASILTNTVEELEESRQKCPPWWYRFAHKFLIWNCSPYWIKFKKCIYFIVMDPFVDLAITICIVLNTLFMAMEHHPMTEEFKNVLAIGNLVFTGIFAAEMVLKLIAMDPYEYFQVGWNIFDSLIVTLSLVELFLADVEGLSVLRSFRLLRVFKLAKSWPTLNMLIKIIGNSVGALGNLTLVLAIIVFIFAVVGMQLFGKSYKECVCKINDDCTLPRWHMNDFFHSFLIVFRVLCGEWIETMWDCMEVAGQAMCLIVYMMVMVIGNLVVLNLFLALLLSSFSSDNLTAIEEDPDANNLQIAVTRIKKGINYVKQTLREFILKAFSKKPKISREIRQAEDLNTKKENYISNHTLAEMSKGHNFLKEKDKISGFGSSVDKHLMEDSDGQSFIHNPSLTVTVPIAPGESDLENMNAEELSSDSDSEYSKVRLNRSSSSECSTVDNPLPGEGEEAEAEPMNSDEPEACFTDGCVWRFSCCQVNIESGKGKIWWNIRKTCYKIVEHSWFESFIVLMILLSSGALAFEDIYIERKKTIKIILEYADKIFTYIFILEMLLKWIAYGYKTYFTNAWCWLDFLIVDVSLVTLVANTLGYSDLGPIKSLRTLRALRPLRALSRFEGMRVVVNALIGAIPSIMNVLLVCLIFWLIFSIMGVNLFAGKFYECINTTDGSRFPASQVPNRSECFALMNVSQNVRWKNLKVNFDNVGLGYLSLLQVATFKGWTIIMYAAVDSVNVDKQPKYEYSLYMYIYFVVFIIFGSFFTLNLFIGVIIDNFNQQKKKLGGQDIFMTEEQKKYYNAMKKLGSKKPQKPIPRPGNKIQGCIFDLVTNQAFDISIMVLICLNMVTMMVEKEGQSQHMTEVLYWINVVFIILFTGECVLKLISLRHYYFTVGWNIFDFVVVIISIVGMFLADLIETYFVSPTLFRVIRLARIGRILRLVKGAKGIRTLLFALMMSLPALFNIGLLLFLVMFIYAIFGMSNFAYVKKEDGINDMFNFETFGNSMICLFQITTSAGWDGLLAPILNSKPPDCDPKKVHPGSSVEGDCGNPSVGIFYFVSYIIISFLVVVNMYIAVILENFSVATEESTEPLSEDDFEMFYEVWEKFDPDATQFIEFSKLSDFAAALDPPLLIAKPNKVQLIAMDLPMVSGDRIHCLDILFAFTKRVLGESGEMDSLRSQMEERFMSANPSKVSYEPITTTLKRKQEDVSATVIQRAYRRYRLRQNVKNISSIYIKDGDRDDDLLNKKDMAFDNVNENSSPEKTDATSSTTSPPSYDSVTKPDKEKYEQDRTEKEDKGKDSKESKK
In words: Automated whole-cell voltage-clamp (ScreenPatch 384P) sodium current block in CHO cells expressing Nav 1.7. Format: cell-based. As to conditions: CHO cells stably expressing human Nav 1.7; whole cell patch clamp, inactivation step -40 mV 8 s, test step 0 mV (TP1A), room temperature; mean where tested in two or more assays; read-out: Nav1.7 IC50. On the procedure: as §1, §2, §3, §4, §5, §6, §7, §8, §9, §10, §11

Molecules are shown by their SMILES.

T1 sequence (Q9Y5Y9 whole entry): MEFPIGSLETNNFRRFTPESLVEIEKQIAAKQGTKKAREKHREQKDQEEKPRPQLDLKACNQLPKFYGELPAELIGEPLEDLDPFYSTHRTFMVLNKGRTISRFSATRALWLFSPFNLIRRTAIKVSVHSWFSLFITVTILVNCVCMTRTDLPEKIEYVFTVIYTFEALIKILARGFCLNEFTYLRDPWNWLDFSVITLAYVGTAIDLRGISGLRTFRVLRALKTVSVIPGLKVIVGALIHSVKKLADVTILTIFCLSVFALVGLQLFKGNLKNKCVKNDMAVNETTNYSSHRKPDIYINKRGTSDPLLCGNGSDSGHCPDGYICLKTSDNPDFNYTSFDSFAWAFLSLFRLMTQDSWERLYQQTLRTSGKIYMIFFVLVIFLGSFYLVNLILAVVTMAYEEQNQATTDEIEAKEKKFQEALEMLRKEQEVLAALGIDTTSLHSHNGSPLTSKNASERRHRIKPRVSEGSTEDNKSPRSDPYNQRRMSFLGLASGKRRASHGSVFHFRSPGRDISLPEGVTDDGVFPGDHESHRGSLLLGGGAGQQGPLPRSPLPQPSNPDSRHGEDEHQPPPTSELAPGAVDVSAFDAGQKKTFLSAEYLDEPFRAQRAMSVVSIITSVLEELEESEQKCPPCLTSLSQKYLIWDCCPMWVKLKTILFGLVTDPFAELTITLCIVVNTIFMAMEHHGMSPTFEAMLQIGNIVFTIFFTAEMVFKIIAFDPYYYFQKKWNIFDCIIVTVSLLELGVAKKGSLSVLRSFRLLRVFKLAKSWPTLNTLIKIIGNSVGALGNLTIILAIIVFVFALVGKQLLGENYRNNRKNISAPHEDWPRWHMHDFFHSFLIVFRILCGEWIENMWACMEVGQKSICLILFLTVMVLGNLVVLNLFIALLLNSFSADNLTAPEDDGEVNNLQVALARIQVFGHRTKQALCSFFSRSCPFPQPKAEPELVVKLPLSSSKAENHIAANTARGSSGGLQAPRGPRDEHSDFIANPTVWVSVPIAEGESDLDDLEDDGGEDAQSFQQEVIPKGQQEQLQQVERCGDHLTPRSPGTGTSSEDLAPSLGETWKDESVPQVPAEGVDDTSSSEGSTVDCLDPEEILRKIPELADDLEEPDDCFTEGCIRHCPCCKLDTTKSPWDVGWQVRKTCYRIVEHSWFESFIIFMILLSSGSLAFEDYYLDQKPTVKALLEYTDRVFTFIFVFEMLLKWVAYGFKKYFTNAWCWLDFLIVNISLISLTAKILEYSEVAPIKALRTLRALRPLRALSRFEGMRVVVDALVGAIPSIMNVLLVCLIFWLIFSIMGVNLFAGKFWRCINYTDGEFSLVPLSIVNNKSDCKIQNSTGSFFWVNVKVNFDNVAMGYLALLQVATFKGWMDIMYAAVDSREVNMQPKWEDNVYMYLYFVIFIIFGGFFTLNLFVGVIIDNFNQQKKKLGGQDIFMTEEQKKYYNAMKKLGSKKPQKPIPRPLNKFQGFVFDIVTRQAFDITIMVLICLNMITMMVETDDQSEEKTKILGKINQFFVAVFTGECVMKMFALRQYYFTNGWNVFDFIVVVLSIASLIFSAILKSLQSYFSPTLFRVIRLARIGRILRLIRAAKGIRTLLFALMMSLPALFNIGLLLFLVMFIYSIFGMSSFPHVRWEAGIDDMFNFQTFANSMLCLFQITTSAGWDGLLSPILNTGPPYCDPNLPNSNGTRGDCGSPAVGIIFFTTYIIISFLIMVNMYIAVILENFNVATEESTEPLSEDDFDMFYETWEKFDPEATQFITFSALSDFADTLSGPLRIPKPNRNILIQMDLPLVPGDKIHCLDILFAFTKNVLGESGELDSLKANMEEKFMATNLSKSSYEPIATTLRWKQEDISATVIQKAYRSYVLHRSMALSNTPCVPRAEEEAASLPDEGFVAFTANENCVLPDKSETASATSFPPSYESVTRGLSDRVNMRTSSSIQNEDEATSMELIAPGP

In the case of `CCOc1ccc(-c2cncc(C(=O)NNCc3cc(OC)ccc3C)n2)cn1` [Compound 33, 6-(6-ethoxypyridin-3-yl)-N′-(5-methoxy-2-methylbenzyl)pyrazine-2-carbohydrazide], the IC50 in test [1] is less than 500 nM; in test [2] it was more than 1000 nM.

As for `CCOc1ccc(-c2cncc(C(=O)NNCc3cc(OC)cnc3C)n2)cn1` [Compound 34, 6-(6-ethoxypyridin-3-yl)-N′-((5-methoxy-2-methylpyridin-3-yl)methyl)pyrazine-2-carbohydrazide], the results for the IC50 in test [1] and in test [2] were less than 500 nM and more than 1000 nM, respectively.

In the case of `CCOc1ccc(-c2cncc(C(=O)NNCc3ccccc3F)n2)cn1` [Compound 39, 6-(6-ethoxypyridin-3-yl)-N′-(2-fluorobenzyl)pyrazine-2-carbohydrazide], the IC50 in test [1] was less than 500 nM; in test [2], more than 1000 nM.

For the molecule `CCOc1cc(C)c(-c2cncc(C(=O)NNCc3cc(OC)cc(OC)c3)n2)cn1` [Compound 40, N′-(3,5-dimethoxybenzyl)-6-(6-ethoxy-4-methylpyridin-3-yl)pyrazine-2-carbohydrazide], the IC50 in test [1] and in test [2] was more than 1000 nM throughout.

As for `CCOc1ccc(-c2cncc(C(=O)NNCc3cc(OC)cc(OC)c3)n2)c(C)n1` [Compound 41, N′-(3,5-dimethoxybenzyl)-6-(6-ethoxy-2-methylpyridin-3-yl)pyrazine-2-carbohydrazide], the IC50 was 500 to 1000 nM in test [1] and more than 1000 nM in test [2].

`COc1cc(CNNC(=O)c2cncc(-c3ccc(OC4CC4)nc3)n2)cc(OC)c1` [Compound 42, 6-(6-cyclopropoxypyridin-3-yl)-N′-(3,5-dimethoxybenzyl)pyrazine-2-carbohydrazide]: the IC50 is 500 to 1000 nM in test [1] and more than 1000 nM in test [2].

Regarding `CCOc1ccc(-c2cncc(C(=O)NN3CCc4ccc(OC)cc4C3)n2)cc1` [Compound 45, 6-(4-ethoxyphenyl)-N-(7-methoxy-3,4-dihydroisoquinoline-2(1H)-yl)pyrazine-2-carboxamide], the IC50 was less than 500 nM in test [1] and more than 1000 nM in test [2].

With `CCOc1ccc(-c2cnnc(C(=O)NNCc3ccccc3F)c2)cc1` [Compound 47, 5-(4-ethoxyphenyl)-N′-(2-fluorobenzyl)pyridazine-3-carbohydrazide], the IC50 in test [1] and in test [2] was more than 1000 nM throughout.

Turning to `CCOc1ccc(-c2ccnc(C(=O)NNCc3ccccc3F)c2)cc1` [Compound 48, 4-(4-ethoxyphenyl)-N′-(2-fluorobenzyl)picolinohydrazide], the IC50 in test [1] and in test [2] was more than 1000 nM in each case.

As for `CCOc1ccc(-c2cncc(C(=O)NNCc3ccccc3F)c2)cc1` [Compound 49, 5-(4-ethoxyphenyl)-N′-(2-fluorobenzyl)nicotinohydrazide], the IC50 in test [1] was less than 500 nM; in test [2], more than 1000 nM.

As for `CCOc1ccc(-c2cccc(C(=O)NNCc3ccccc3F)n2)cc1` [Compound 50, 6-(4-ethoxyphenyl)-N′-(2-fluorobenzyl)picolinohydrazide], the IC50 in test [1] and in test [2] was more than 1000 nM in each case.

Values taken from patent US20260226020A1, “Nav 1.7 AND/OR Nav 1.8 BLOCKING HYDRAZIDES, PROCESSES FOR THE PREPARATION THEREOF, COMPOSITIONS, USES, METHODS OF TREATMENT USING SAME AND KITS” (Eurofarma Laboratórios S.A., priority 2023, published 2026).
